Measurements reported in ChEMBL document CHEMBL1201862, “PubChem BioAssay data set” (2004).
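Method: 48-hour compound exposure of cells in 96-well plates, five concentrations, linear interpolation of endpoints. The concentration for 50% growth inhibition is given as GI50.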 Activity calls are given as the source filed them. Rule as the data show it: active = GI50 up to about 1.1 µM and inactive = higher.

Experiments:
Experiment in all cases: NCI anticancer screen, dose series, 48 h
[1] = test system: MOLT-4
[2] = test system: M14
[3] = test system: BT-549
[4] = test system: ACHN
[5] = test system: SK-MEL-28
[6] = test system: OVCAR-5
[7] = test system: RPMI-8226
[8] = test system: MCF7
[9] = test system: UACC-257
[10] = test system: SF-539
[11] = test system: U-251
[12] = test system: SF-268
[13] = test system: IGROV-1
[14] = test system: SK-MEL-5
[15] = test system: KM12
[16] = test system: SF-295
[17] = test system: OVCAR-4
[18] = test system: SNB-75
[19] = test system: LOX IMVI
[20] = test system: CCRF-CEM

Measured: GI50

CCOC(=O)[C@@H]1C[C@H]1c1ccc(O)c(O)c1
inactive: [1] 18.5 µM | [2] 34.8 µM | [3] 43.4 µM | [4] 65.2 µM | [5] 25.4 µM | [6] > 100 µM | [7] 30.9 µM | [8] 43.9 µM | [9] 19.9 µM | [10] 91 µM | [11] 69.7 µM | [12] 67.6 µM | [13] 24.4 µM | [14] 16.6 µM | [15] > 100 µM | [16] > 100 µM

O=C1CSC2(CCN(CCCN3c4ccccc4Sc4ccc(Cl)cc43)CC2)N1
inactive: [2] 6.81 µM | [3] 12.1 µM | [4] 11.6 µM | [5] 15 µM | [6] 11.9 µM | [7] 6.05 µM | [8] 5.9 µM | [17] 10.5 µM | [9] 9.35 µM | [18] 7.43 µM | [10] 13.1 µM | [11] 8.51 µM | [12] 8.34 µM | [13] 7.78 µM | [19] 3.88 µM | [14] 11 µM | [15] 6.65 µM | [16] 10.3 µM

Cc1cccc(-c2cccc(COCc3cccc(-c4cccc(CO)n4)n3)n2)n1
inactive: [1] 4.41 µM | [2] 34.4 µM | [3] 19.3 µM | [4] > 50 µM | [5] > 50 µM | [6] > 50 µM | [7] 33.3 µM | [8] 36.2 µM | [17] > 50 µM | [9] 12.8 µM | [18] > 50 µM | [10] > 50 µM | [11] > 50 µM | [12] > 50 µM | [13] 13 µM | [19] > 50 µM | [14] 11.7 µM | [15] > 50 µM | [16] > 5 µM

COc1ccccc1N1C(=O)/C(=C\c2ccccc2)SC1c1cc(OC)c(OC)c(OC)c1 (stereo not drawn)
inactive: [1] 35 µM | [2] 35.1 µM | [3] 34.8 µM | [4] 74.1 µM | [5] 54 µM | [6] 62.5 µM | [8] 32.3 µM | [17] 53.5 µM | [9] 83.4 µM | [11] 27.1 µM | [12] 48.5 µM | [19] 21.9 µM | [14] 27.6 µM | [15] 32.1 µM | [16] 30.1 µM

Cc1cc2ccc(N)nc2nc1O
inactive: [2] > 100 µM | [3] > 100 µM | [4] 52 µM | [6] > 100 µM | [7] > 100 µM | [8] > 100 µM | [9] > 100 µM | [18] > 100 µM | [10] > 100 µM | [11] 99.1 µM | [12] 92.9 µM | [13] > 100 µM | [14] > 100 µM | [15] > 100 µM | [16] > 100 µM

COc1ccc(N2CC(=O)N(C(=O)COc3ccc(OCC(=O)N4C(=O)CN(c5ccc(OC)cc5)C4=S)cc3)C2=S)cc1
inactive: [1] 30 µM | [2] > 100 µM | [3] > 100 µM | [4] > 100 µM | [5] > 100 µM | [6] > 100 µM | [7] 87.5 µM | [8] 48.6 µM | [17] > 100 µM | [9] 48.3 µM | [18] > 100 µM | [11] > 100 µM | [12] > 100 µM | [13] 15.4 µM | [14] 45.6 µM | [15] 39.1 µM | [16] > 100 µM

O=[N+]([O-])c1ccc2c(c1)N=C1OC(c3c[nH]c4ccc(COc5ccccc5)cc34)C(O)=C1N2 (stereo not drawn)
inactive: [1] 1.82 µM | [2] > 100 µM | [3] > 100 µM | [4] > 100 µM | [5] > 100 µM | [6] > 100 µM | [7] > 100 µM | [8] 55 µM | [17] > 100 µM | [9] 33.7 µM | [18] 25.1 µM | [10] > 100 µM | [11] > 100 µM | [12] > 100 µM | [13] > 100 µM | [19] > 100 µM | [14] 37.5 µM | [15] > 100 µM | [16] 47.6 µM

CC1(C)OC2CN(C(=O)OCc3ccccc3)C(CO)C2O1 (stereo not drawn)
inactive: [1] > 100 µM | [2] > 100 µM | [3] > 100 µM | [4] > 100 µM | [5] > 100 µM | [6] > 100 µM | [7] > 100 µM | [8] > 100 µM | [17] > 100 µM | [9] > 100 µM | [18] > 100 µM | [10] > 100 µM | [11] > 100 µM | [12] > 100 µM | [13] > 100 µM | [19] > 100 µM | [14] > 100 µM | [15] > 100 µM | [16] > 100 µM

C=CCC(C(=O)Nc1cccc2nc[nH]c12)C(=O)OCC (stereo not drawn)
inactive: [1] > 100 µM | [2] > 100 µM | [3] > 100 µM | [4] > 100 µM | [5] > 100 µM | [6] > 100 µM | [7] > 100 µM | [8] > 100 µM | [17] 43.1 µM | [9] > 100 µM | [18] > 100 µM | [10] > 100 µM | [11] > 100 µM | [12] > 100 µM | [13] > 100 µM | [19] > 100 µM | [15] > 100 µM | [16] > 100 µM

Nc1ccccc1C(=O)CC1OC(=O)c2ccccc21 (stereo not drawn)
inactive: [1] > 100 µM | [2] > 100 µM | [3] 35 µM | [4] > 100 µM | [5] > 100 µM | [6] > 100 µM | [7] 38.1 µM | [8] > 100 µM | [17] 65.5 µM | [9] > 100 µM | [18] 23 µM | [10] 36 µM | [11] 48.4 µM | [12] 69.3 µM | [13] > 100 µM | [19] 52.8 µM | [15] 33.4 µM | [16] > 100 µM

O=S(=O)(O)c1ccc(/N=N/c2ccc(/N=N/c3c(O)ccc4ccccc34)c(S(=O)(=O)O)c2)cc1
inactive: [1] > 100 µM | [2] > 100 µM | [3] > 100 µM | [4] > 100 µM | [5] > 100 µM | [6] > 100 µM | [7] > 100 µM | [8] > 100 µM | [9] > 100 µM | [18] 62.1 µM | [10] > 100 µM | [11] > 100 µM | [12] > 100 µM | [20] > 100 µM | [13] > 100 µM | [14] > 100 µM | [15] > 100 µM | [16] > 100 µM

COc1ccc(-c2cc(-c3ccc(Nc4ccnc5cc(C(F)(F)F)ccc45)cc3)nc(N)c2C#N)cc1
inactive: [1] 95.5 µM | [2] 96.8 µM | [3] 46.2 µM | [4] > 100 µM | [5] 32.5 µM | [6] > 100 µM | [7] > 100 µM | [8] 35.9 µM | [17] 27.7 µM | [18] 31 µM | [10] 34.6 µM | [11] 75 µM | [19] 33.3 µM | [14] > 100 µM | [15] 86.9 µM | [16] 32 µM

COc1cc2c(cc1OCCCCOc1cc3c(cc1OC)C(=O)N1CCC[C@H]1C(=O)N3)N=C[C@@H]1CCCN1C2=O
inactive: [1] 2.27 µM | [2] 12.9 µM | [3] 4.44 µM | [4] 14.7 µM | [5] 14.3 µM | [6] 13.1 µM | [7] 1.57 µM | [8] 2.72 µM | [17] 13.1 µM | [9] 14.9 µM | [18] 4.12 µM | [11] 3.93 µM | [12] 3.82 µM | [13] 8.57 µM | [19] 1.99 µM | [14] 4 µM | [15] 5.02 µM | [16] 12.5 µM

COc1ccc(/C=C/c2cc(O)cc(OC)c2)cc1
inactive: [1] 56.5 µM | [2] > 100 µM | [3] 22.9 µM | [4] 19.8 µM | [5] > 100 µM | [6] > 100 µM | [7] 22.3 µM | [8] > 100 µM | [17] > 100 µM | [9] > 100 µM | [18] > 100 µM | [10] > 100 µM | [11] 28.7 µM | [12] > 100 µM | [13] > 100 µM | [14] > 100 µM | [15] 40.9 µM | [16] 75.9 µM

CNc1c2c(c3nc4ccccc4c4c3c1N=C4)NCCC2=O [PLAKINIDINE A]
inactive: [1] 1.32 µM | [2] > 10 µM | [3] 7.74 µM | [4] 2.07 µM | [5] > 10 µM | [6] 5.83 µM | [7] 2.57 µM | [8] 2.66 µM | [17] 7.83 µM | [9] > 10 µM | [18] 2.87 µM | [10] 3.9 µM | [11] 5.87 µM | [12] 3.33 µM | [20] 1.9 µM | [13] 4.42 µM | [14] 6.55 µM | [15] 4.79 µM | [16] 4.5 µM
